{
  "source": "patent US4965273A",
  "about": "“Certain 1-tertiary-butyl-naphthyridone carboxylic acid derivatives anti-bacterial agents” (priority 1988, dated 1990)",
  "key": {"[1]": {"system": "Streptococcus faecalis", "test": "Minimum inhibitory concentration (MIC), microtitration dilution method of Heifetz et al.", "assay_type": "cell-based", "method": "(§1) The compounds of this invention display antibacterial activity when tested by the microtitration dilution method reported by Heifetz et al., Antimicr. Agents & Chemoth., 6. 124 (1974). Minimum inhibitory concentrations (MICs, in μg/ml) for but a few representative compounds according to this invention were determined by the above-mentioned method."}, "[2]": {"system": "Streptococcus faecium", "test": "Minimum inhibitory concentration (MIC), microtitration dilution method of Heifetz et al.", "assay_type": "cell-based", "conditions": "Table 2", "method": "as §1"}, "[3]": {"system": "Klebsiella oxytoca", "test": "Minimum inhibitory concentration (MIC), microtitration dilution method of Heifetz et al.", "assay_type": "cell-based", "conditions": "Table 2", "method": "as §1"}, "[4]": {"system": "Escherichia coli", "test": "Minimum inhibitory concentration (MIC), microtitration dilution method of Heifetz et al.", "assay_type": "cell-based", "conditions": "Table 2", "method": "as §1"}, "[5]": {"system": "Staphylococcus aureus", "test": "Minimum inhibitory concentration (MIC), microtitration dilution method of Heifetz et al.", "assay_type": "cell-based", "conditions": "Table 2", "method": "as §1"}, "[6]": {"system": "Pseudomonas aeruginosa", "test": "Minimum inhibitory concentration (MIC), microtitration dilution method of Heifetz et al.", "assay_type": "cell-based", "conditions": "Table 2", "method": "as §1"}, "[7]": {"system": "Enterobacter cloacae", "test": "Minimum inhibitory concentration (MIC), microtitration dilution method of Heifetz et al.", "assay_type": "cell-based", "set-up": "unit not given here", "conditions": "Table 2"}, "[8]": {"conditions": "from Tables 2, 3 and 4"}},
  "data": [
    {"smiles": "O=C(O)c1cn(C2CC2)c2cc(N3CCNCC3)c(F)cc2c1=O", "note": "[Cip., 1-cyclopropyl-6-fluoro-1,4-dihydro-7-(1-piperazinyl)-4-oxo-quinoline-3-carboxylic acid, reference compound]", "values": [
      {"measurement": "MIC", "setting": "[1]; Enterococcus faecalis, read-out: MIC S. faecal.", "result": 0.5, "unit": "mg/L"}
    ]},
    {"smiles": "CC(C)(C)n1cc(C(=O)O)c(=O)c2cc(F)c(N3C[C@@H]4CC[C@H]3CN4)nc21", "note": "[Example 23, 7-(1S,4S-2,5-diazabicyclo[2.2.2]octan-2-yl)-1-(1,1-dimethylethyl)-1,4-dihydro-6-fluoro-4-oxo-1,8-naphthyridine-3-carboxylic acid]", "values": [
      {"measurement": "MIC S. faecal.", "setting": "[1]; Table 2, Streptococcus faecalis", "result": 0.5, "unit": "mg/L"},
      {"measurement": "MIC S. faeci.", "setting": "[2]", "result": 2.0, "unit": "mg/L"},
      {"measurement": "MIC K. oxyto.", "setting": "[3]", "result": 0.5, "unit": "mg/L"},
      {"measurement": "MIC E. coli", "setting": "[4]", "result": 0.13, "unit": "mg/L"},
      {"measurement": "MIC S. aur.", "setting": "[5]", "result": 0.03, "unit": "mg/L"},
      {"measurement": "MIC P. aer.", "setting": "[6]", "result": 1.0, "unit": "mg/L"},
      {"measurement": "MIC E. clo.", "setting": "[7]", "result": 0.06}
    ]},
    {"smiles": "CC(C)(C)n1cc(C(=O)O)c(=O)c2cc(F)c(N3C[C@H]4C[C@@H]3CN4)nc21", "note": "[Example 30, 7-(1R,4R-2,5-diazabicyclo[2.2.1]heptan-2-yl)-1-(1,1-dimethylethyl)-1,4-dihydro-6-fluoro-4-oxo-1,8-naphthyridine-3-carboxylic acid]", "values": [
      {"measurement": "combination of anti-bacterial, toxicity, and water-solubility properties", "setting": "[8]", "result": "highly advantageous combination of the above mentioned properties"}
    ]}
  ]
}
